Experimental data reported in patent publication US10696642B2, “TEAD transcription factor autopalmitoylation inhibitors” (The General Hospital Corporation, priority 2015, dated 2020).

The compounds below were run against T1, TEAD2 (Homo sapiens, UniProt Q15562) (assay: In vitro palmitoylation assay to measure potency of TEAD palmitoylation inhibitors (Example 11)). Settings: compound at 5 μM, 3 μM alkyne palmitoyl-CoA, normalized to DMSO control.
T1 construct: The cDNA encoding human TEAD2 (residues 217-447, TEAD2^217-447) was cloned into a pET29 vector; made in house; host or cells: E. coli BL21(DE3)-T1R
Assay type: biochemical
Method: Recombinant His6TEAD2 (500 ng) protein was incubated with DMSO control or TEAD inhibitors (MGH-CP1 and its analogues) at 5 μM for 30 min. 3 μM of alkyne palmitoyl-CoA (Cayman Chemical) were then added into the reaction mixture and incubated for 2 h in 50 mM MES, pH 6.4. The reaction was quenched with 1% SDS followed by Click reaction with biotin-azide. Samples were analyzed by SDS-PAGE and streptavidin HRP. Bands intensity obtained from streptavidin blot were quantified using Image J (NIH), and normalized to DMSO control. The percentage of inhibition was determined by comparing to DMSO control and non-palmitoylated TEAD2. To determine the dose-dependency of the inhibitors, various concentrations of the compounds (10 nM to 20 μM) were incubated with TEAD2 protein for 30 min, and then 3 μM of alkyne palmitoyl-CoA (Cayman Chemical) were then added into the reaction mixture and incubated for 2 h in 50 mM MES, pH 6.4. The reaction was then quenched and analyzed similarly as descried above. The level of palmitoylation was then determined by the streptavidin blot, and plotted by Prism to determine the IC50 values.
Compounds (4) to (53) were tested for activity in inhibiting TEAD palmitoylation in the assay of Example 11. The data for the compounds provided in Table 2 as a percentage of inhibition of TEAD2 palmitoylation by the compound at a concentration of 5 μM.

T1 sequence (Q15562 217-447): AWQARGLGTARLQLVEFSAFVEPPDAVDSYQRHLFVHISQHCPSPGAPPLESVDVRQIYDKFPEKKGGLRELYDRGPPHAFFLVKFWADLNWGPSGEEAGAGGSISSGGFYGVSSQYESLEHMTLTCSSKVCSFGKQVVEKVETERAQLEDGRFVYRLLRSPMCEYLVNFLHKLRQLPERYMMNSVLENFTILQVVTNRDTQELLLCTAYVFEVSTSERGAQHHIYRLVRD

Compound | inhibition at 5 µM [%]
CC(C)(C)c1ccc(NC(=O)CSc2nnc[nH]2)cc1 | 30
CC(C)c1ccc(NC(=O)CSc2nnc[nH]2)cc1 | 24
COc1ccc(-c2nnc(SCC(=O)Nc3ccc(C45CC6CC(CC(C6)C4)C5)cc3)[nH]2)cc1 | 80
Cn1c(SCC(=O)Nc2ccc(C34CC5CC(CC(C5)C3)C4)cc2)nnc1-c1ccccc1 | 70
CCn1c(SCC(=O)Nc2ccc(C34CC5CC(CC(C5)C3)C4)cc2)nnc1-c1ccccc1O | 10
CCn1c(CN2CCOCC2)nnc1SCC(=O)Nc1ccc(C23CC4CC(CC(C4)C2)C3)cc1 | 10
Cn1cnnc1SCC(=O)Nc1ccc(C23CC4CC(CC(C4)C2)C3)cc1 | 10
O=C(CSc1nnc[nH]1)Nc1ccc(-c2ccccc2)cc1 | 89
Cn1cnnc1SCC(=O)Nc1ccc(-c2ccccc2)cc1 | 23
Cn1cnnc1SCC(=O)Nc1ccc(C23CC4CC(CC(C4)C2)C3)cc1Br | 12
O=C(CSc1nnc[nH]1)Nc1ccc(C23CC4CC(CC(C4)C2)C3)cc1Br | 87
O=C(CSc1nnc[nH]1)Nc1ccc(-c2cccc3ccccc23)cc1 | 90
O=C(CSc1nnc[nH]1)Nc1ccc(-c2ccccc2)cc1Br | 89
O=C(CSc1nnc[nH]1)Nc1ccc(-c2cc3ccccc3c3ccccc23)cc1 | 56
O=C(CSc1nnc[nH]1)Nc1ccc(-c2ccc(C3CCCCC3)cc2)cc1 | 93
O=C(CSc1nnc[nH]1)Nc1ccc(-c2cc(C(F)(F)F)cc(C(F)(F)F)c2)cc1 | 95
CC(C)(C)c1ccc(-c2ccc(NC(=O)CSc3nnc[nH]3)cc2)cc1 | 100
O=C(CSc1nnc[nH]1)Nc1ccc(-c2cc(-c3ccccc3)cc(-c3ccccc3)c2)cc1 | 68
Cc1cc(C)cc(-c2ccc(NC(=O)CSc3nnc[nH]3)cc2)c1 | 100
CCCc1ccc(-c2ccc(NC(=O)CSc3nnc[nH]3)cc2)cc1 | 97
O=C(CSc1nnc[nH]1)Nc1ccc(-c2cccc(C(F)(F)F)c2)cc1 | 88
O=C(CSc1nnc[nH]1)Nc1ccc(-c2cccc(-c3ccccc3)c2)cc1 | 70
O=C(CS(=O)(=O)c1nnc[nH]1)Nc1ccc(C23CC4CC(CC(C4)C2)C3)cc1 | < 10
O=C(CNc1nnc[nH]1)Nc1ccc(C23CC4CC(CC(C4)C2)C3)cc1 | 45
O=C(CCSc1nnc[nH]1)Nc1ccc(C23CC4CC(CC(C4)C2)C3)cc1 | 100

Compound | inhibition at 5 µM [%]
O=C(CSc1nncs1)Nc1ccc(C23CC4CC(CC(C4)C2)C3)cc1 | 68
O=C(CSc1nnc[nH]1)Oc1ccc(C23CC4CC(CC(C4)C2)C3)cc1 | 39
CCOc1ccc2nc(SCC(=O)Nc3ccc(C45CC6CC(CC(C6)C4)C5)cc3)sc2c1 | 40
Cc1ccc(-c2nnc(SCC(=O)Nc3ccc(C45CC6CC(CC(C6)C4)C5)cc3)o2)cc1 | 53
CCOc1ccc2nc(SCCC(=O)Nc3ccc(C45CC6CC(CC(C6)C4)C5)cc3)sc2c1 | 47
O=C(CCCSc1nnc[nH]1)Nc1ccc(C23CC4CC(CC(C4)C2)C3)cc1 | 100
Cc1ccc(-c2nnc(SCCC(=O)Nc3cccc(C45CC6CC(CC(C6)C4)C5)c3)o2)cc1 | 80
Cc1nnc(SCC(=O)Nc2ccc(C34CC5CC(CC(C5)C3)C4)cc2)o1 | 76
Cc1nnc(SCCC(=O)Nc2cccc(C34CC5CC(CC(C5)C3)C4)c2)o1 | 80
O=C(CSc1nnc(-c2ccc(Cl)cc2Cl)o1)Oc1ccc(C23CC4CC(CC(C4)C2)C3)cc1 | 56
O=C(CCSc1nnc(-c2ccc(Cl)cc2Cl)o1)Nc1cccc(C23CC4CC(CC(C4)C2)C3)c1 | 63
Cc1ccc(-c2nnc(SCCCC(=O)Nc3ccc(C45CC6CC(CC(C6)C4)C5)cc3)o2)cc1 | 58
O=C(Nc1ccc(C23CC4CC(CC(C4)C2)C3)cc1)c1cccnc1Nc1cccc(C(F)(F)F)c1 | < 10
O=C(CSc1nnc[nH]1)N(c1cccc(C(F)(F)F)c1)c1ccccn1 | < 10
O=C(CSc1nnc[nH]1)Nc1ccc(-c2cccc(-c3cccnc3)c2)cc1 | 100
O=C(CSc1nnc[nH]1)Nc1ccc(-c2cccc(-c3ccncc3)c2)cc1 | 100
O=C(CSc1nnc[nH]1)Nc1ccc(-c2cc(-c3cccnc3)cc(-c3cccnc3)c2)cc1 | 95
O=C(CSc1nnc[nH]1)Nc1ccc(-c2cc(-c3ccncc3)cc(-c3ccncc3)c2)cc1 | 90
O=C(CSc1nnc[nH]1)Nc1ccc(-c2cc(-c3ccccc3)cc(C(F)(F)F)c2)cc1 | 90
O=C(CSc1nnc[nH]1)Nc1ccc(-c2ccncc2)cc1 | 90
Cc1cc(-c2ccc(NC(=O)CSc3nnc[nH]3)cc2)cc(C)n1 | 95
O=C(CSc1nnc[nH]1)Nc1ccc(-c2cc(-c3ccccc3)nc(-c3ccccc3)c2)cc1 | 78
O=C(CSc1nnc[nH]1)Nc1ccc(C23CC4CC(CC(C4)C2)C3)cc1 [drawing 23] | 85
Cc1cccc(C)c1-c1ccc(NC(=O)CSc2nnc[nH]2)cc1 [drawing 42] | 100
Nc1nncn1CC(=O)Nc1ccc(C23CC4CC(CC(C4)C2)C3)cc1 [drawing 55] | 38

These compounds were tested on HuH7 cells (assay: Colony formation, HuH7). Settings: tested at 0-20 μM (FIG. 29).
Assay type: cell-based, human
Method: Assays were performed to measure inhibition of cancer cell proliferation in HuH7 cells by compounds (4), (22) and (36), which were each tested at 0-20 μM.

Compound | inhibition of cancer cell proliferation / colony formation in HuH7 cells
Cc1cccc(C)c1-c1ccc(NC(=O)CSc2nnc[nH]2)cc1 [Compound 23] | effective
Nc1nncn1CC(=O)Nc1ccc(C23CC4CC(CC(C4)C2)C3)cc1 [Compound 36] | less effective
